Key:
Type in all cases: in vivo, human
panelists = assay: Cooling intensity: panelists taste aqueous solutions, compared with menthol at 2 ppm; conditions: tasted by small group of panelists
panelist [1] = assay: Application in toothpaste: toothgel brushed on a panelist's teeth, cooling perception; conditions: for cooling perception rated higher than the control: control = peppermint oil toothgel
Description: The materials were mixed in the toothgel, a piece of toothgel was put on a toothbrush and a panelist's teeth were brushed. The mouth was rinsed with water and the water spat out. […] The cooling perception lasted for 40 minutes.
The materials were mixed in the toothgel, a piece of toothgel was put on a toothbrush and a panelist's teeth were brushed. The mouth was rinsed with water and the water spat out. […] The cooling perception was rated 24% higher than the control and lasted for 70 minutes.
The materials were mixed in the toothgel, a piece of toothgel was put on a toothbrush and a panelist's teeth were brushed. The mouth was rinsed with water and the water spat out. […] The cooling perception was rated 18% higher than the control and lasted for 60 minutes.
The materials were mixed in the toothgel, a piece of toothgel was put on a toothbrush and a panelist's teeth were brushed. The mouth was rinsed with water and the water spat out. […] The cooling perception was rated 95% higher than the control and lasted for 65 minutes.
The materials were mixed in the toothgel, a piece of toothgel was put on a toothbrush and a panelist's teeth were brushed. The mouth was rinsed with water and the water spat out. […] The cooling perception was rated 100% higher than the control and lasted for 40 minutes.
The materials were mixed in the toothgel, a piece of toothgel was put on a toothbrush and a panelist's teeth were brushed. The mouth was rinsed with water and the water spat out. […] The cooling perception was rated 30% higher than the control and lasted for over 35 minutes.

panelist [2] = assay: Application in chewing gum: 2 g gum chewed by a panelist for 20 minutes, cooling perception; conditions: for cooling perception rated higher than the control: control = peppermint oil gum
Description: The gum base, and half of the sorbitol were mixed, maltitol syrup was added and then mixed with the gum mass. The rest of the powdered ingredients (rest of the sorbitol, mannitol, ace-K, aspartame) were added and mixed for about 1 minute, at which point glycerine was added and the gum mass was mixed for about 5 minutes, to form the blank chewing gum mass. Peppermint oil was worked into the mass and a piece of the resulting gum (2 g) was chewed by a panelist for […] and spat out. […] The cooling perception lasted far 50 minutes.
The chemical in the peppermint oil was worked into the blank chewing gum mass from Example 12 a) and a piece of the resulting gum (2 g) was chewed by a panelist for 20 minutes and spat out. […] The cooling perception was rated 43% higher than the control and lasted for over 60 minutes.
The chemical and peppermint oil was worked into the blank chewing gum mass from Example 12 a) and a piece of the resulting gum (2 g) was chewed by a panelist for 20 minutes and spat out. […] The cooling perception was rated 40% higher than the control and lasts for over 60 minutes.
The chemical in the peppermint oil was worked into the blank chewing gum mass from Example 12 a) and a piece of the resulting gum (2 g) was chewed by a panelist for 20 minutes and spat out. […] The cooling perception was rated 27% higher than the control and lasted for over 60 minutes.

[3] = toothgel: 0.10 g of 1% solution of compound in peppermint oil + 0.40 g peppermint oil
[4] = chewing gum: 0.50 g of 1% solution of compound in peppermint oil
[5] = toothgel: 0.05 g of 1% solution of compound in peppermint oil + 0.45 g peppermint oil
[6] = chewing gum: 0.05 g of 1% solution of compound in peppermint oil + 0.45 g peppermint oil
[7] = toothgel: 0.50 g of 1% solution of compound in peppermint oil
[8] = toothgel: 0.025 g compound + 0.50 g peppermint oil

`CC1(C)[C@H]2CC[C@]1(C)[C@H](OC(=O)CCC(=O)O)C2` [Example 1, 4-oxo-4-(1S,2R,4S)1,7,7-trimethylbicyclo[2.2.1]heptan-2-yloxybutanoic acid] was tested, and the “Concentration with a cooling intensity similar to or slightly higher than that of a solution of menthol at 2 ppm” value (shortened to “Concentration”) (panelists) was 0.003 ppm.

In the case of `O=C(O)CCC(=O)O[C@H]1C[C@@H]2CC[C@H]1C2` [Example 3, 4-((1S,2S,4R)-bicyclo[2.2.1]heptan-2-yloxy)-4-oxobutanoic acid], the cooling sensation felt (panelist [1]; [3]) is reported as “intense cooling sensation”, the “duration of cooling perception” value (panelist [1]; [3]) is reported as 70 min and the “cooling perception rated higher than the control” value (panelist [1]; [3]) is reported as 24%. For the same compound, the cooling sensation felt (panelist [2]; [4]) was “cooling sensation”, the “duration of cooling perception” value (panelist [2]; [4]) was “over 60 minutes” and the “cooling perception rated higher than the control” value (panelist [2]; [4]) was 43%.

`CC1(C)[C@@H]2CC[C@@]1(C)[C@H](OC(=O)CCC(=O)O)C2` [Example 4, 4-oxo-4-((1R,2R,4R)-1,7,7-trimethylbicyclo[2.2.1]heptan-2-yloxy)butanoic acid] was tested, and the “Concentration” value (panelists) was 0.001 ppm, the cooling sensation felt (panelist [1]; [5]) was “intense cooling sensation” and the “duration of cooling perception” value (panelist [1]; [5]) was 40 min. For the same compound, the “cooling perception rated higher than the control” value (panelist [1]; [5]) was 100%, the cooling sensation felt (panelist [2]; [6]) was “cooling sensation” and the “duration of cooling perception” value (panelist [2]; [6]) was “over 60 minutes”. The “cooling perception rated higher than the control” value (panelist [2]; [6]) was 40%.

In the case of `CCOC(=O)CC(=O)O[C@@H]1C2(C)CCC(C2)C1(C)C` (stereo partly drawn) [Example 6, Ethyl (2R)-1,3,3-trimethylbicyclo[2.2.1]heptan-2-yl malonate], the “Concentration” value (panelists) is reported as 0.10 ppm, the cooling sensation felt (panelist [1]; [3]) is reported as “intense cooling sensation” and the “duration of cooling perception” value (panelist [1]; [3]) is reported as 60 min. The “cooling perception rated higher than the control” value (panelist [1]; [3]) was 18%, the cooling sensation felt (panelist [1]; [7]) was “intense cooling sensation” and the “duration of cooling perception” value (panelist [1]; [7]) was 65 min. For the same compound, the “cooling perception rated higher than the control” value (panelist [1]; [7]) was 95%, the cooling sensation felt (panelist [2]; [4]) was “cooling sensation” and the “duration of cooling perception” value (panelist [2]; [4]) was “over 60 minutes”. The “cooling perception rated higher than the control” value (panelist [2]; [4]) was 27%.

In the case of `CN(C)C(=O)CCC(=O)O[C@@H]1C2(C)CCC(C2)C1(C)C` (stereo partly drawn) [Example 7, (2R)-1,3,3-trimethylbicyclo[2.2.1]heptan-2-yl 4-(dimethylamino)-4-oxobutanoate], the “Concentration” value (panelists) is reported as 0.002 ppm.

In the case of `C[C@@H](N)C(=O)OC1C2(C)CCC(C2)C1(C)C` (stereo partly drawn) [Example 8, D-alanine fenchyl ester], the “Concentration” value (panelists) is reported as 0.20 ppm, the cooling sensation felt (panelist [1]; [8]) is reported as “intense cooling sensation” and the “duration of cooling perception” value (panelist [1]; [8]) is reported as “over 35 minutes”. For the same compound, the “cooling perception rated higher than the control” value (panelist [1]; [8]) was 30%.

For `CC1(C)[C@H]2CC[C@](C)(C2)[C@H]1OC(=O)CCC(=O)O` [Example 9, 4-oxo-4-((1R,2R,4S)-1,3,3-trimethylbicyclo[2.2.1]heptan-2-yloxy)butanoic acid], the “Concentration” value (panelists) was 0.10 ppm.

`CCNC(=O)C1CC(C)CCC1C(C)C` (centres unmarked) [WS-3, N-ethyl p-menthanecarboxamide, reference compound] was tested, and the “Concentration” value (panelists) was 1.5 ppm.

For `CC(C)[C@@H]1CC[C@@H](C)C[C@H]1O` [l-Menthol, reference compound], the “Concentration” value (panelists) was 2.0 ppm.

— US20080311232A1, “Cooling Compounds” (Givaudan, SA, priority 2007, published 2008)
